Data from patent US11292781B2, “Pyrimidine tricyclic enone derivatives for inhibition of ROR-gamma and other uses” (REATA PHARMACEUTICALS, INC., priority 2016, dated 2022).

Test system: Nrf2 transcription factor (GST ARE luciferase reporter in AREc32 cells)
Assay: AREc32 luciferase reporter assay
Assay type: cell-based, human
Conditions: EC2×: concentration required to increase GST ARE luciferase reporter activity by 2-fold, 19 hours
Text: A. AREc32 Luciferase Reporter Assay The AREc32 luciferase reporter assay allows for quantitative assessment of the endogenous activity of the Nrf2 transcription factor in cultured mammalian cells. AREc32 cells are derived from MCF-7 human breast carcinoma cells that were stably transfected with a reporter construct that contains the firefly luciferase gene located downstream of eight copies of the rat GSTA2 antioxidant response element (ARE) sequence (Wang et al., 2006; CXR Biosciences). Active NRF2 binds to the ARE sequences and increases expression of the firefly luciferase gene. […] Luciferase activity was determined using the ONE-Glo Luciferase assay (Promega). The luminescence signal was measured on a BMG Pherastar microplate reader. The mean luminescence value from test compound-treated wells was normalized to that from DMSO-treated wells and was represented as fold-induction. Data were analyzed using GraphPad Prism version 6.00 for Windows, GraphPad Software, La Jolla Calif. USA. A non-linear regression curve with log (agonist) vs. response using a variable slope was used to fit the data. […] EC2× values were interpolated from the curve.

SMILES	HRF2 ARE 2× [nM]
COc1nc(OC)c2c(n1)[C@]1(C)C=C(C#N)C(=O)[C@H](C)[C@H]1CC2 [T1]	487
COc1cc(-c2nc(OC)c3c(n2)[C@]2(C)C=C(C#N)C(=O)[C@H](C)[C@H]2CC3)ccn1 [T2]	247
COc1nc(-c2ccnc(C)c2)nc2c1CC[C@@H]1[C@@H](C)C(=O)C(C#N)=C[C@@]21C [T3]	232
COc1nc(-c2ccncc2C)nc2c1CC[C@@H]1[C@@H](C)C(=O)C(C#N)=C[C@@]21C [T4]	449
COc1nc(-c2ccncc2)nc2c1CC[C@@H]1[C@@H](C)C(=O)C(C#N)=C[C@@]21C [T5]	365
COc1nc(-c2ccnc(F)c2)nc2c1CC[C@@H]1[C@@H](C)C(=O)C(C#N)=C[C@@]21C [T6]	341
COc1nc(-c2cccnc2)nc2c1CC[C@@H]1[C@@H](C)C(=O)C(C#N)=C[C@@]21C [T7]	388
C[C@H]1C(O)=C(C#N)C[C@@]2(C)c3nc(-c4ccncc4)nc(-c4ccccc4)c3CC[C@H]12 [T13]	>2000
C[C@H]1C(=O)C(C#N)=C[C@@]2(C)c3nc(-c4ccncc4)nc(-c4ccccc4)c3CC[C@H]12 [T14]	281
C[C@H]1C(=O)[C@@]2(C#N)O[C@H]2[C@@]2(C)c3nc(-c4ccncc4)nc(-c4ccccc4)c3CC[C@H]12 [T15]	738
C[C@H]1C(=O)C(C(N)=O)=C[C@@]2(C)c3nc(-c4ccncc4)nc(-c4ccccc4)c3CC[C@H]12 [T16]	1000
Cc1ccc(S(=O)(=O)Oc2nc(-c3ccncc3)nc3c2CC[C@@H]2[C@@H](C)C(=O)C(C#N)=C[C@@]32C)cc1 [T18]	381
C[C@H]1C(=O)C(C#N)=C[C@@]2(C)c3nc(-c4ccccc4)nc(-c4ccccc4)c3CC[C@H]12 [T19]	741
C[C@H]1C(=O)C(C#N)=C[C@@]2(C)c3nc(-c4ccc(C(F)(F)F)cc4)nc(-c4ccccc4)c3CC[C@H]12 [T20]	608
C[C@H]1C(=O)C(C#N)=C[C@@]2(C)c3nc(-c4ccncc4)nc(-c4ccc(CO)cc4)c3CC[C@H]12 [T21]	443
C[C@H]1C(=O)C(C#N)=C[C@@]2(C)c3ncnc(-c4ccccc4)c3CC[C@H]12 [T22]	90
C[C@H]1C(=O)C(C#N)=C[C@@]2(C)c3nc(-c4ccncc4)nc(-c4ccc(C(F)(F)F)cc4)c3CC[C@H]12 [T24]	171
C[C@H]1C(=O)C(C#N)=C[C@@]2(C)c3nc(-c4ccncc4)nc(-c4cccnc4)c3CC[C@H]12 [T25]	449
C[C@H]1C(=O)C(C#N)=C[C@@]2(C)c3nc(-c4ccncc4)nc(-c4cccc(C(F)(F)F)c4)c3CC[C@H]12 [T26]	267
Cc1ccc(-c2nc(-c3ccncc3)nc3c2CC[C@@H]2[C@@H](C)C(=O)C(C#N)=C[C@@]32C)cc1 [T27]	181
C[C@H]1C(=O)C(C#N)=C[C@@]2(C)c3nc(-c4ccncc4)nc(-c4ccc(Cl)cc4)c3CC[C@H]12 [T28]	141

SMILES	HRF2 ARE 2× [nM]
C[C@H]1C(=O)C(C#N)=C[C@@]2(C)c3nc(-c4ccncc4)nc(-c4ccncc4)c3CC[C@H]12 [T29]	484
COc1ccc(-c2nc(-c3ccncc3)nc3c2CC[C@@H]2[C@@H](C)C(=O)C(C#N)=C[C@@]32C)cc1 [T30]	136
C[C@H]1C(=O)C(C#N)=C[C@@]2(C)c3nc(-c4ccncc4)nc(-c4ccc(Cl)c(Cl)c4)c3CC[C@H]12 [T31]	186
C[C@H]1C(=O)C(C#N)=C[C@@]2(C)c3nc(N)nc(-c4ccccc4)c3CC[C@H]12 [T34]	469
C[C@H]1C(=O)C(C#N)=C[C@@]2(C)c3nc(NC(=O)C4CCCCC4)nc(-c4ccccc4)c3CC[C@H]12 [T35]	575
C[C@H]1C(=O)C(C#N)=C[C@@]2(C)c3nc(-c4ccncc4)nc(Cc4ccccc4)c3CC[C@H]12 [T36]	484
C[C@H]1C(=O)C(C#N)=C[C@@]2(C)c3nc(-c4ccnc5ccccc45)nc(-c4ccccc4F)c3CC[C@H]12 [T37]	351
Cc1cc(-c2nc(-c3ccc(F)cc3)c3c(n2)[C@]2(C)C=C(C#N)C(=O)[C@H](C)[C@H]2CC3)ccn1 [T50]	256
Cc1cc(-c2nc(-c3ccccc3F)c3c(n2)[C@]2(C)C=C(C#N)C(=O)[C@H](C)[C@H]2CC3)ccn1 [T51]	364
Cc1cnccc1-c1nc(-c2ccccc2F)c2c(n1)[C@]1(C)C=C(C#N)C(=O)[C@H](C)[C@H]1CC2 [T56]	193
C[C@H]1C(=O)C(C#N)=C[C@@]2(C)c3nc(-c4ccc5ncccc5c4)nc(-c4ccccc4F)c3CC[C@H]12 [T60]	380
C[C@H]1C(=O)C(C#N)=C[C@@]2(C)c3nc(-c4cn(C)c5ncccc45)nc(-c4ccccc4F)c3CC[C@H]12 [T72]	374
C[C@H]1C(=O)C(C#N)=C[C@@]2(C)c3nc(-c4ccccc4F)nc(-c4ccccc4F)c3CC[C@H]12 [T81]	705
C[C@H]1C(=O)C(C#N)=C[C@@]2(C)c3nc(-c4ccnc(CO)c4)nc(-c4ccccc4F)c3CC[C@H]12 [T82]	480
C[C@H]1C(=O)C(C#N)=C[C@@]2(C)c3nc(-c4ccnc(CF)c4)nc(-c4ccccc4F)c3CC[C@H]12 [T83]	484
Cc1ccc(-c2nc(-c3ccccc3F)c3c(n2)[C@]2(C)C=C(C#N)C(=O)[C@H](C)[C@H]2CC3)cn1 [T88]	177
C[C@H]1C(=O)C(C#N)=C[C@@]2(C)c3nc(N4CCN(C)CC4)nc(-c4ccccc4F)c3CC[C@H]12 [T91]	552
C[C@H]1C(=O)C(C#N)=C[C@@]2(C)c3nc(N4CCOCC4)nc(-c4ccccc4F)c3CC[C@H]12 [T92]	491
CC1(C)C(=O)C(C#N)=C[C@@]2(C)c3nc(-c4ccnc5ccccc45)nc(-c4ccccc4F)c3CC[C@H]12 [T118]	395
CC1=C2CCc3c(-c4ccccc4F)nc(-c4ccnc5c(F)cccc45)nc3[C@]2(C)C=C(C#N)C1=O [T128]	1385
C[C@H]1C(=O)[C@@]2(C#N)O[C@H]2[C@@]2(C)c3nc(-c4ccnc5cc(F)ccc45)nc(-c4ccccc4F)c3CC[C@H]12 [T129]	697

SMILES	HRF2 ARE 2× [nM]
C[C@H]1C(=O)[C@@]2(C#N)O[C@H]2[C@@]2(C)c3nc(-c4ccnc(C5CC5)c4)nc(-c4ccccc4F)c3CC[C@H]12 [T130]	692
CC1(C)C(=O)[C@@]2(C#N)O[C@H]2[C@@]2(C)c3nc(-c4ccnc5ccccc45)nc(-c4ccccc4F)c3CC[C@H]12 [T133]	1199
COc1nc(-c2ccncc2)nc2c1CC[C@@H]1[C@@H](C)C(=O)C=C[C@@]21C [T134]	3137
COC(=O)[C@@]1(C)C(=O)C=C[C@@]2(C)c3nc(-c4ccncc4)nc(OC)c3CC[C@H]12 [T135]	>2000
CC(=O)N1CCN(c2nc(-c3ccccc3F)c3c(n2)[C@]2(C)C=C(C#N)C(=O)[C@H](C)[C@H]2CC3)CC1 [T139]	222
C=CC[C@H]1C(=O)C(C#N)=C[C@@]2(C)c3nc(-c4ccnc(C5CC5)c4)nc(-c4ccccc4F)c3CC[C@H]12 [T145]	337
CCC[C@H]1C(=O)C(C#N)=C[C@@]2(C)c3nc(-c4ccnc(C5CC5)c4)nc(-c4ccccc4F)c3CC[C@H]12 [T146]	447
C[C@H]1C(=O)C(C#N)=C[C@@]2(c3ccccc3)c3nc(-c4ccnc(C5CC5)c4)nc(-c4ccccc4F)c3CC[C@H]12 [T147]	>2000
CCC[C@H]1C(=O)C(C#N)=C[C@@]2(C)c3nc(-c4ccnc5ccccc45)nc(-c4ccccc4F)c3CC[C@H]12 [T158]	315
CC(C)c1ccc(-c2nc(-c3ccnc4ccccc34)nc3c2CC[C@@H]2[C@@H](C)C(=O)C(C#N)=C[C@@]32C)cc1 [T161]	158
C[C@H]1C(=O)C(C#N)=C[C@@]2(C)c3nc(-c4ccnc5ccccc45)nc(-c4ccc(-c5ccccc5)cc4)c3CC[C@H]12 [T163]	312
CCC[C@@]12C=C(C#N)C(=O)[C@H](C)[C@H]1CCc1c(-c3ccccc3F)nc(-c3ccnc(C4CC4)c3)nc12 [T169]	540
C[C@H]1C(=O)C(C#N)=C[C@@]2(C)c3nc(-c4ccnc5ccccc45)nc(-c4ccccc4F)c3C[C@H]12 [T170]	1222
C[C@H]1C(=O)C(C#N)=C[C@@]2(C)c3nc(-c4ccnc(CF)c4)nc(-c4ccccc4F)c3C[C@H]12 [T171]	1474
Cc1cc(-c2nc(-c3ccccc3F)c3c(n2)[C@]2(C)C=C(C#N)C(=O)[C@H](C)[C@H]2C3)c2cccc(F)c2n1 [T172]	998
C[C@H]1C(=O)C(C#N)=C[C@@]2(C)c3nc(-c4cccc5ncccc45)nc(-c4ccccc4F)c3C[C@H]12 [T173]	>2000
C[C@H]1C(=O)C(C#N)=C[C@@]2(C)c3nc(-c4ccnc(C5CC5)c4)nc(-c4ccccc4F)c3C[C@H]12 [T174]	>2000
C[C@H]1C(=O)C(C#N)=C[C@@]2(C)c3nc(-c4ccnc(CCC(N)=O)c4)nc(-c4ccccc4F)c3CC[C@H]12 [T177]	491
CC[C@@]1(C)C(=O)C(C#N)=C[C@@]2(C)c3nc(-c4ccnc(C5CC5)c4)nc(-c4ccccc4F)c3CC[C@H]12 [T181]	518
Cc1cc(-c2nc(-c3ccccc3)c3c(n2)[C@]2(C)C=C(C#N)C(=O)[C@H](C)[C@H]2CCC3)ccn1 [T182]	892
